Patent publication US20120101100A1 (priority 2008, published 2012)
Where a name gives a salt, the structure may show the parent alone.

Target: S. aureus GyrB ATPase (Staphylococcus aureus, UniProt P0A0K8)
Experiment: S. aureus (SAU) GyrB ATPase inhibition, malachite green phosphate detection (E. coli GyrA + S. aureus GyrB)
Format: biochemical
Details: compound concentration of 1.0 μM unless otherwise noted; average value where assay was carried out more than once; read-out: S. aureus (SAU) GyrB ATPase % Inhibition
How it was run: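 Phosphate from ATP hydrolysis (500 μM ATP) read as malachite green/molybdate absorbance at 650 nm after acid quench. Reaction: 1.25 nM S. aureus GyrB plus 1.25 nM E. coli GyrA, sheared DNA, Hepes pH 7.5 with Mg2+. IC50 fitted over 10 concentrations, normalised to DMSO (2%) and novobiocin (2 μM) controls.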

Chain of S. aureus GyrB ATPase (P0A0K8 whole entry): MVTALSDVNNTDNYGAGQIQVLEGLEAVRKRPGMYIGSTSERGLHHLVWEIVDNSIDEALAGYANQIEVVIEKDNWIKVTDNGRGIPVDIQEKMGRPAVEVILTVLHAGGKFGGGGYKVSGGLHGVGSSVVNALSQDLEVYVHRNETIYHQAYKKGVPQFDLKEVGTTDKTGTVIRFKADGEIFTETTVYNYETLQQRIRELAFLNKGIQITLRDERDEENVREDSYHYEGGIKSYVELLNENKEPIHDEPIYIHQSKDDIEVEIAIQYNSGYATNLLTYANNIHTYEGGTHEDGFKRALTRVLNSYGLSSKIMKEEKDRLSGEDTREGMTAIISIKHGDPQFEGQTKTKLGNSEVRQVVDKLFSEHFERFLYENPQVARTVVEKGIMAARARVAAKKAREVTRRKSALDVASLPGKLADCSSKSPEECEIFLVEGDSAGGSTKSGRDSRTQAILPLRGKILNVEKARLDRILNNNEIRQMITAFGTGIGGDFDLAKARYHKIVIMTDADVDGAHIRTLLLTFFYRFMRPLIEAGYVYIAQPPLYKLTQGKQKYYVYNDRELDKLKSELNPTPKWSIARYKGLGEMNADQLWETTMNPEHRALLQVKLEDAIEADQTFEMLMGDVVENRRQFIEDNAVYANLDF
Chain of S. aureus GyrB ATPase (P0AES4 whole entry, further chain): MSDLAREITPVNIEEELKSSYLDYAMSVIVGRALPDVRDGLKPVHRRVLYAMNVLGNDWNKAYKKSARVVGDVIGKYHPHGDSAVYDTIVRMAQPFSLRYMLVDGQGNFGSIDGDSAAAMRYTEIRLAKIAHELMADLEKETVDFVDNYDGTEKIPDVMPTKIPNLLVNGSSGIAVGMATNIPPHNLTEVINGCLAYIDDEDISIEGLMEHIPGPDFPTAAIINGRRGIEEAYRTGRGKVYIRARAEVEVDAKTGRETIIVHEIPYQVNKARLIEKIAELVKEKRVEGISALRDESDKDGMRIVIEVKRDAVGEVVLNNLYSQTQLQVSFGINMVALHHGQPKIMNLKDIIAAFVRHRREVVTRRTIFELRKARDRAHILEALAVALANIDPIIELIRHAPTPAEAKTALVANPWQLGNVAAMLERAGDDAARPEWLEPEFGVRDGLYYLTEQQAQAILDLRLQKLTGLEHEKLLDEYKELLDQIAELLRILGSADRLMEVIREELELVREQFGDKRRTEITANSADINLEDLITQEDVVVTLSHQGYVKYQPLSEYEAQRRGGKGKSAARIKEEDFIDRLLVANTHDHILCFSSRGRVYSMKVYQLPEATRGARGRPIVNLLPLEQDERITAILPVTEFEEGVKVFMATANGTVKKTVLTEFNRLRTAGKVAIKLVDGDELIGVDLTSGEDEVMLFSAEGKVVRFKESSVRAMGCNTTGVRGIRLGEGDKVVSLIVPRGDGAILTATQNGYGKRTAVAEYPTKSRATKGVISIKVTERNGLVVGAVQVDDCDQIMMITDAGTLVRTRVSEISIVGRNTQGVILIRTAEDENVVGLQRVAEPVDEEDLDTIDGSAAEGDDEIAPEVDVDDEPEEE

Compound	inhibition at 1 µM [%]
CCNC(=O)Nc1cc(-c2nc(C(F)(F)F)c(C(=O)NCCN3CCN(C)CC3)s2)c(-c2cncc(-c3nnc(C)o3)c2)cn1 [Example 64, 2-(6-(3-ethylureido)-5′-(5-methyl-1,3,4-oxadiazol-2-yl)-3,3′-bipyridin-4-yl)-N-(2-(4-methylpiperazin-1-yl)ethyl)-4-(trifluoromethyl)thiazole-5-carboxamide]	98
CCNC(=O)Nc1cc(-c2nc(C(F)(F)F)c(C(=O)NCCOC)s2)c(-c2cncc(-c3n[nH]c(=O)o3)c2)cn1 [Example 59, 2-(6-(3-ethylureido)-5′-(5-oxo-4,5-dihydro-1,3,4-oxadiazol-2-yl)-3,3′-bipyridin-4-yl)-N-(2-methoxyethyl)-4-(trifluoromethyl)thiazole-5-carboxamide]	98
CCNC(=O)Nc1cc(-c2nc(C(F)(F)F)cs2)c(-c2cc(-c3n[nH]c(=O)o3)cnc2OC2C[C@H]3CC[C@@H](C2)N3C)cn1 (stereo partly drawn) [Example 227]	100
CCNC(=O)Nc1cc(-c2nc(C(F)(F)F)cs2)c(-c2cc(-c3n[nH]c(=O)o3)cnc2OCCC2CCCN2C)cn1 (stereo not drawn) [Example 224]	94
CCNC(=O)Nc1cc(-c2nc(C(F)(F)F)cs2)c(-c2cncc(-c3nnc(N4CCN(C)CC4)o3)c2)cn1 [Example 155]	96
CCNC(=O)Nc1cc(-c2nc(C(F)(F)F)cs2)c(-c2cncc(-c3nnc(COC(C)=O)o3)c2)cn1 [Example 276, (5-(6′-(3-ethylureido)-4′-(4-(trifluoromethyl)thiazol-2-yl)-3,3′-bipyridin-5-yl)-1,3,4-oxadiazol-2-yl)methyl acetate]	98
CCNC(=O)Nc1cc(-c2nc(C(F)(F)F)cs2)c(-c2cncc(-c3nnc(OCC)o3)c2)cn1 [Example 271, 1-(5′-(5-ethoxy-1,3,4-oxadiazol-2-yl)-4-(4-(trifluoromethyl)thiazol-2-yl)-3,3′-bipyridin-6-yl)-3-ethylurea]	100
CCNC(=O)Nc1cc(-c2nc(C(F)(F)F)cs2)c(-c2ccnc(-c3nnc([C@H]4COCCN4)o3)c2)cn1 [Example 243, (R)-1-ethyl-3-(2′-(5-(morpholin-3-yl)-1,3,4-oxadiazol-2-yl)-4-(4-(trifluoromethyl)thiazol-2-yl)-3,4′-bipyridin-6-yl)urea]	122
CCNC(=O)Nc1cc(-c2nc(-c3ccccc3)cs2)c(-c2cc(OCC)nc(-c3nnc(C)o3)c2)cn1 [Example 78, 1-(2′-ethoxy-6′-(5-methyl-1,3,4-oxadiazol-2-yl)-4-(4-phenylthiazol-2-yl)-3,4′-bipyridin-6-yl)-3-ethylurea]	99
CCNC(=O)Nc1cc(-c2nc(-c3cnn(C)c3)cs2)c(-c2cncc(-c3n[nH]c(=O)o3)n2)cn1 [Example 206]	99
CCNC(=O)Nc1cc(-c2nc(C(F)(F)F)c(CNCCOC)s2)c(-c2cncc(-c3nnc(C)o3)c2)cn1 [Example 54, 1-ethyl-3-(4-(5-((2-methoxyethylamino)methyl)-4-(trifluoromethyl)thiazol-2-yl)-5′-(5-methyl-1,3,4-oxadiazol-2-yl)-3,3′-bipyridin-6-yl)urea]	97
CCCNC(=O)Nc1cc(-c2nc(C(F)(F)F)cs2)c(-c2cc(-c3nnc(C)o3)cnc2OCCN(C)C)cn1 [Example 167]	96
CCNC(=O)Nc1cc(-c2nc(-c3ccccc3)cs2)c(-c2cc(-c3nnc(C)o3)nc(N3CCOCC3)c2)cn1 [Example 89, 1-ethyl-3-(2′-(5-methyl-1,3,4-oxadiazol-2-yl)-6′-morpholino-4-(4-phenylthiazol-2-yl)-3,4′-bipyridin-6-yl)urea]	87
CCNC(=O)Nc1cc(-c2nc(-c3cccc(OC)n3)cs2)c(-c2ccnc(-c3n[nH]c(=O)o3)c2)cn1 [Example 248, 1-ethyl-3-(4-(4-(6-methoxypyridin-2-yl)thiazol-2-yl)-2′-(5-oxo-4,5-dihydro-1,3,4-oxadiazol-2-yl)-3,4′-bipyridin-6-yl)urea]	104
CCNC(=O)Nc1cc(-c2nc(C(F)(F)F)cs2)c(-c2cncc(-c3nn(C(=O)N(C)C)c(=O)o3)c2)cn1 [Example 158, 5-(6′-(3-Ethylureido)-4′-(4-(trifluoromethyl)thiazol-2-yl)-3,3′-bipyridin-5-yl)-N,N-dimethyl-2-oxo-1,3,4-oxadiazole-3(2H)-carboxamide]	97
CCNC(=O)Nc1cc(-c2nc(C(F)(F)F)cs2)c(-c2cc(-c3n[nH]c(=O)o3)cnc2OCCC(=O)O)cn1 [Example 111, 3-({6′-[(ethylcarbamoyl)amino]-5-(5-oxo-4,5-dihydro-1,3,4-oxadiazol-2-yl)-4′-[4-(trifluoromethyl)-1,3-thiazol-2-yl]-3,3′-bipyridin-2-yl}oxy)propanoic acid]	106
CCNC(=O)Nc1cc(-c2nc(C(F)(F)F)c(C)s2)c(-c2cncc(-c3nnc(C)o3)c2)cn1 [Example 138, 1-Ethyl-3-(5′-(5-methyl-1,3,4-oxadiazol-2-yl)-4-(5-methyl-4-(trifluoromethyl)thiazol-2-yl)-3,3′-bipyridin-6-yl)urea]	104
CCNC(=O)Nc1cc(-c2nc(C(F)(F)F)cs2)c(-c2cc(-c3n[nH]c(=O)o3)cnc2N)cn1 [Example 260, 1-(2′-amino-5′-(5-oxo-4,5-dihydro-1,3,4-oxadiazol-2-yl)-4-(4-(trifluoromethyl)thiazol-2-yl)-3,3′-bipyridin-6-yl)-3-ethylurea]	96
CCNC(=O)Nc1cc(-c2nc(C(F)(F)F)cs2)c(-c2cc(-c3nnc([C@@H](N)C(C)C)o3)cnc2OCCN(CC)CC)cn1 [Example 122, 1-(5′-(5-(1-amino-2-methylpropyl)-1,3,4-oxadiazol-2-yl)-2′-(2-(diethylamino)ethoxy)-4-(4-(trifluoromethyl)thiazol-2-yl)-3,3′-bipyridin-6-yl)-3-ethylurea hydrochloride]	102
CCNC(=O)Nc1cc(-c2nc(C(F)(F)F)cs2)c(-c2cncc(-c3nnc(COC)o3)c2)cn1 [Example 270, 1-ethyl-3-(5′-(5-(methoxymethyl)-1,3,4-oxadiazol-2-yl)-4-(4-(trifluoromethyl)thiazol-2-yl)-3,3′-bipyridin-6-yl)urea]	97
CCNC(=O)Nc1cc(-c2nc(C(F)(F)F)cs2)c(-c2cncc(-c3nnc(CN(C)C)o3)c2)cn1 [Example 268, 1-(5′-(5-((dimethylamino)methyl)-1,3,4-oxadiazol-2-yl)-4-(4-(trifluoromethyl)thiazol-2-yl)-3,3′-bipyridin-6-yl)-3-ethylurea]	98
CCNC(=O)Nc1cc(-c2nc(-c3ccccc3)cs2)c(-c2cc(OC(C)C)nc(-c3nnc(C)o3)c2)cn1 [Example 82, 1-ethyl-3-(2′-isopropoxy-6′-(5-methyl-1,3,4-oxadiazol-2-yl)-4-(4-phenylthiazol-2-yl)-3,4′-bipyridin-6-yl)urea]	86
CCNC(=O)Nc1cc(-c2nc(-c3ccccn3)cs2)c(-c2cncc(S(N)(=O)=O)c2)cn1 [Example 105, 6′-(3-Ethylureido)-4′-(4-(pyridin-2-yl)thiazol-2-yl)-3,3′-bipyridine-5-sulfonamide]	101
CCNC(=O)Nc1cc(-c2nc(C(F)(F)F)cs2)c(-c2cc(-c3n[nH]c(=O)o3)cnc2OCCCC2CCCC2)cn1 [Example 220]	91
